Reference: PubChem BioAssay (NCI)
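Exposure lasted 48 hours, with cells grown in 96-well plates and compounds tested at five concentrations. Definition used: TGI = concentration required for complete inhibition of growth.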

Experiments:
Test in all cases: NCI anticancer screen, dose series, 48 h
[1] = tested on: SN12C renal
[2] = tested on: SNB-19 CNS
[3] = tested on: HOP-92 NSCLC
[4] = tested on: UACC-257 melanoma
[5] = tested on: NCI-H522 lung
[6] = tested on: CCRF-CEM leukemia
[7] = tested on: HS 578T breast
[8] = tested on: M14 melanoma
[9] = tested on: MDA-MB-435
[10] = tested on: HL-60(TB) leukemia
[11] = tested on: SNB-75 CNS
[12] = tested on: OVCAR-8 ovarian

| SMILES | TGI [1] | TGI [2] | TGI [3] | TGI [4] | TGI [5] | TGI [6] | TGI [7] | TGI [8] | TGI [9] | TGI [10] | TGI [11] | TGI [12] |
| --- | --- | --- | --- | --- | --- | --- | --- | --- | --- | --- | --- | --- |
| O=C(O)c1ccc(NS(=O)(=O)Cc2ccccc2)cc1 | > 100 µM | > 100 µM | > 100 µM | > 100 µM | > 100 µM | > 100 µM | > 100 µM | > 100 µM | > 100 µM | > 100 µM | > 100 µM | > 100 µM |
| Cc1cc(C)c2c(n1)S(=O)(=O)N(CCCN1CCN(c3cccc(C(F)(F)F)c3)CC1)/C(=C(\O)c1ccc(Cl)cc1)C2=O | 13.8 µM | 16.6 µM | 8.35 µM | 8.49 µM | 14.8 µM | > 100 µM | 56.8 µM | 18.1 µM | 15 µM | 6.15 µM | 8.04 µM | 29.5 µM |
| CCOC(=O)C1C(=O)CC(O)(c2ccccc2)C(C(=O)OCC)C1c1ccc(OC)cc1 (configuration not stated) | > 100 µM | > 72.5 µM | > 82 µM | > 100 µM | 38.2 µM | 79.2 µM | 53.7 µM | 82.9 µM | 11.4 µM | > 47.8 µM | 11.9 µM | > 100 µM |
| Cc1cccc(N(CCC#N)S(=O)(=O)c2ccccc2)c1 | > 100 µM | > 100 µM | > 100 µM | > 100 µM | > 100 µM | > 100 µM | > 100 µM | > 100 µM | > 100 µM | > 100 µM | > 100 µM | > 100 µM |
| CC(=O)OCC1OC(n2c(=S)[nH]c(-c3ccccc3)c(C#N)c2=O)C(OC(C)=O)C(OC(C)=O)C1OC(C)=O (configuration not stated) | > 100 µM | > 100 µM | > 100 µM | > 100 µM | > 100 µM | > 100 µM | > 100 µM | > 100 µM | > 100 µM | > 100 µM | > 100 µM | > 100 µM |
| Cc1cccc(C[C@@]2(SCc3ccccc3)C(C)(C)[C@@H]3CC[C@@]2(C)C3)n1 | 31.5 µM | 33.1 µM | 27.6 µM | 29.9 µM | 29.1 µM | 27.6 µM | 49.1 µM | 46.2 µM | 78.3 µM | 29.7 µM | 34.4 µM | 30 µM |
| Cc1ccc(C2=Nc3c(c(C)nn3-c3ccccc3)N=C(C(=O)O)C2)cc1 | > 10 µM | > 10 µM | > 10 µM | > 10 µM | > 10 µM | > 10 µM | > 10 µM | > 10 µM | > 10 µM | > 10 µM | > 10 µM | > 10 µM |
| CCOC(=O)c1c(N)n(-c2ccccc2)c(=S)n(-c2ccccc2)c1=O | > 100 µM | > 100 µM | > 100 µM | > 100 µM | > 100 µM | > 100 µM | > 100 µM | > 100 µM | > 100 µM | > 100 µM | > 100 µM | > 100 µM |
| COc1ccc(NC2Oc3cc4c(cc3C(c3cc(OC)c(OC)c(OC)c3)C2C)OCO4)cc1 (configuration not stated) | > 81.5 µM | > 100 µM | 33.7 µM | > 78.5 µM | 2.45 µM | > 100 µM | > 100 µM | > 45.1 µM | 0.565 µM | 2 µM | > 100 µM | > 45.4 µM |
| Cc1cc(O)cc(O)c1N=Nc1ccc([N+](=O)[O-])cc1 | 54 µM | > 100 µM | 8.17 µM | 79.5 µM | 14.5 µM | > 100 µM | 73.7 µM | > 100 µM | 42.4 µM | > 100 µM | 45.6 µM | > 100 µM |
| CN(O)C(=O)Cc1ccc(OCc2cccc(Cl)c2)cc1 | > 100 µM | > 100 µM | > 100 µM | > 100 µM | > 100 µM | > 100 µM | > 100 µM | > 100 µM | > 100 µM | > 100 µM | > 100 µM | > 100 µM |
| O=C1/C(=C/c2ccc([N+](=O)[O-])cc2)CNC/C1=C\c1ccc([N+](=O)[O-])cc1 | 15.5 µM | 10.6 µM | 59 µM | > 100 µM | 9.4 µM | 2.97 µM | > 64.9 µM | 28.7 µM | 23.9 µM | 10 µM | 17 µM | 8.36 µM |
| CN1CCN(C(=S)N(C)C(=O)c2ccc(Cl)cc2)CC1 | > 100 µM | > 100 µM | > 100 µM | > 100 µM | > 100 µM | > 100 µM | > 100 µM | > 100 µM | > 100 µM | > 100 µM | > 100 µM | > 100 µM |
| CCC[C@H](C)[C@H]1NC(=O)[C@@H](NC(=O)[C@@H](CC(C)C)N(C)C(=O)C2CCCN2C(=O)[C@H](C)O)[C@@H](C)OC(=O)[C@H](CC(C)C)N(C)C(=O)[C@@H]2CCCN2C(=O)[C@H](CC(C)C)NC(=O)[C@@H](C)C(=O)[C@H](C(C)C)OC(=O)C[C@@H]1O (some centres not stated) |  | 0.06 µM | 0.0093 µM | 0.0205 µM | 0.00609 µM | 0.141 µM | 1.04 µM | 0.0848 µM | 0.00519 µM | 0.108 µM | 0.0246 µM | 0.0484 µM |
| O=C1OC[C@@H]2Cc3c([nH]c4ccccc34)[C@@H](c3ccc(O)cc3)N12 | > 89.7 µM | > 100 µM | > 100 µM | 72.2 µM | 77.6 µM | > 84.4 µM | > 100 µM | 54.7 µM | 68.2 µM | > 81.7 µM | 69.4 µM | > 71.7 µM |
| O=C1C(Br)=Cc2c(Cl)sc(Cl)c21 | 18.4 µM | 50.7 µM | 7 µM | > 28.5 µM | 11.7 µM | > 100 µM | > 93.8 µM | 26.7 µM | 5.43 µM | 6.3 µM | 30.4 µM | 33.3 µM |
| O=C1C(C=NCCc2c[nH]c3ccccc23)C(C(F)(F)F)=NN1c1nc2ccccc2s1 (configuration not stated) | > 100 µM | > 100 µM | 48.5 µM | 41.9 µM | 43.6 µM | 57.8 µM | > 100 µM | > 100 µM | 71.9 µM | 47.8 µM | > 100 µM | > 100 µM |
| C=CC/C(C(=O)OC)=C(/C(=O)OC)N(CCC)CCC | > 100 µM | > 100 µM | > 100 µM | > 100 µM | > 100 µM | > 100 µM | > 100 µM | > 100 µM | > 100 µM | 64.4 µM | > 100 µM | > 100 µM |
| c1ccc2c(c1)CCCN1CCc3ccccc3C21 (configuration not stated) | > 100 µM | > 100 µM | > 100 µM | > 100 µM | > 100 µM | > 100 µM | > 100 µM | > 100 µM | 56.4 µM | > 100 µM | > 100 µM | > 100 µM |
| CN1CN(c2ccccc2)C2(CCN(CCCC3(c4cccs4)OCCO3)CC2)C1=O | > 100 µM | > 100 µM | > 100 µM | > 100 µM | > 100 µM | > 100 µM | > 100 µM | > 100 µM | > 100 µM | > 100 µM | > 100 µM | > 100 µM |
| CC1=CC=CC(C)(C)CC1(O[Si](C)(C)C)C(F)(F)F (configuration not stated) | > 100 µM | > 100 µM | > 100 µM | > 100 µM | > 100 µM | > 100 µM | > 100 µM | > 100 µM | > 100 µM | > 100 µM | > 100 µM | > 100 µM |
| CCOP(=O)(OCC)/C(F)=C/c1ccccc1 | > 100 µM | > 100 µM | > 100 µM | > 100 µM | > 100 µM | > 100 µM | > 100 µM | > 100 µM | > 100 µM | > 100 µM | > 100 µM | > 100 µM |
| CC(C)c1c(P(=O)(c2ccccc2)c2ccccc2)n(C)c2ccccc12 | > 100 µM | > 100 µM | > 100 µM | > 100 µM | > 100 µM | > 100 µM | > 100 µM | > 100 µM | > 100 µM | 96.9 µM | > 100 µM | > 100 µM |
| C[C@@H]1C[C@H](O)[C@]2(O)O[C@@H]3C[C@@]4(C=O)[C@@H](CC=C5[C@@H]4CC[C@]4(C)[C@@H](C6=CC(=O)OC6)CC[C@]54O)C[C@H]3O[C@@H]2O1 | 0.131 µM | 0.93 µM | 0.174 µM | 0.372 µM | 0.0468 µM | 0.0161 µM | 0.191 µM | 0.817 µM | 0.151 µM | 0.062 µM | 0.916 µM | 0.22 µM |
| O=C1/C(=C/c2ccc(F)cc2)CNC/C1=C\c1ccc(F)cc1 | 6.71 µM | 6.2 µM | > 21.5 µM | 28 µM | 3.26 µM | > 100 µM | > 42.1 µM | 4.35 µM | 7.51 µM | > 100 µM | 18.3 µM | 9.52 µM |
| NCCCC(N)C(=O)O (configuration not stated) | > 100 µM | > 100 µM | > 100 µM | > 100 µM | > 100 µM | > 100 µM | > 100 µM | > 100 µM | > 100 µM | > 100 µM | > 100 µM | > 100 µM |
| Brc1ccc2c3c1[C@@H]1O[C@@H]1c1cccc(c1-3)[C@@H]1O[C@H]21 | 45.9 µM | 60.9 µM | 43.5 µM | 98.4 µM | 31.4 µM | > 100 µM | 80.8 µM | 35.5 µM | 48.3 µM | 66.5 µM | 45.2 µM | 30.8 µM |
| O=c1c2cc(I)ccc2[nH]c(=S)n1Cc1ccccc1 | > 100 µM | 98.9 µM | 63.2 µM | > 100 µM | 42.9 µM | 23.1 µM | 58.9 µM | > 100 µM | > 100 µM | 28.5 µM | 54.4 µM | > 100 µM |
| CCN(CC)CCCn1c(=O)c2cccnc2n2c3c(=O)n(C)c(=O)n(C)c3nc12 | > 100 µM | > 100 µM | > 100 µM | > 100 µM | > 100 µM | > 100 µM | > 100 µM | > 100 µM | > 100 µM | > 100 µM | > 100 µM | > 100 µM |
